This is an account of results in paper PMC6178183, “Development of a HPLC-MS/MS Method to Determine 11 Bioactive Compounds in Tongmai Yangxin Pill and Application to a Pharmacokinetic Study in Rats” (Evidence-based Complementary and Alternative Medicine : eCAM, 2018).

Structures are written as SMILES. Where “and” joins values, the source holds several entries; their conditions need not be identical. Equal values may be shown once.

The nature of data set [1]: Pharmacokinetic study in rats after oral administration of TMYX extract (HPLC-MS/MS of plasma). Format: in vivo, Sprague–Dawley rats. The settings on record: rat plasma; for AUC(0-inf) / half-life / AUC / k el: male, Sprague-Dawley; for AUC: read-out: AUC (0-tn); for k el: read-out: K e (converted); for T max1: n=6, mean ± SD. How it is done:
The HPLC-MS/MS system consists of an Agilent 1200 high-performance liquid chromatography coupled with an Aglient 6430 series triple quadrupole mass spectrometer with an electrospray ionization (ESI) source. The chromatographic separation was achieved on a CORTECS C18 column (4.6 mm × 150 mm, 2.7 μm), and the column temperature was kept at 30°C. Mobile phases which consisted of 0.1% formic acid in water (A) and acetonitrile (B) were used in the following gradient elution method: 0-10 min, 10%-85% B; 10-13 min, 85%-95% B; 13-19 min, 95%-95% B. The flow rate was set at 0.3 mL/min, and the injection volume was 10 μL. All data were analyzed by Mass Hunter workstation software (Agilent Technologies, USA).
The mass spectrometer was carried out in both positive and negative ionization multiple-reaction monitoring (MRM) mode. The source parameters were as follows: the capillary voltage set at 300 V for positive ionization mode and -300 V for negative ionization mode, the drying gas temperature was 320°C, the flow was 11 L/min, and nebulizing gas pressure was 30 psi.
The plasma (100 μL) was spiked with 20 μL of methanol, 20 μL of the IS (icariin, 1 μg/mL), and 20 μL of formic acid and then vortex-mixed. The mixture was extracted with 800 μL of ethyl acetate by vortex mixing for 5 min at room temperature. After centrifugation at 14,000 rpm for 10 min, the supernatant was collected to a clean tube and evaporated to dryness under a nitrogen stream. The residue was reconstituted in 50 μL of 50% methanol, vortexed for 5 min, and centrifuged at 14,000 rpm for 10 min. Finally, 10 μL supernatant was injected into the LC-MS/MS system for analysis.
Male Sprague–Dawley rats (230-250 g) were obtained from Beijing HFK Experimental Animal Technology Co., Ltd. The rats were maintained under the control environmental conditions and they fasted for 12 h with free access to water before the experiments. TMYX extracts were dissolved in CMC-Na and administrated orally to rats at 8.3 g/kg. The blood samples (200 μL) were collected from the rat fossa orbitalis vein at 0, 0.03, 0.083, 0.17, 0.25, 0.5, 1, 2, 4, 6, 8, 10, 12, 24, 36, and 48 h after oral administration to heparinized tubes. And then the blood samples were centrifuged at 7,000 rpm for 10 min to get the plasma sample immediately. Finally, the plasma obtained was stored at −70°C until analysis. Pharmacokinetic parameters were calculated by the computer program “Drug and Statistics 2.0” (DAS 2.0) (Medical College of Wannan, China).

The nature of data set [2]: Stability of analytes in rat plasma QC samples under storage conditions. It is filed as in vitro ADME. To be noted: n=6, gallic acid, ononin, schisandrin, stilbene glycoside, liquiritigenin, rhein, verbascoside; for Measured Concentration, auto-sampler for 12 h: prepared rat plasma samples; for Measured Concentration, -70°C for 14 days / Measured Concentration, room temperature for 6 h / Measured Concentration, three freeze-thaw cycles: rat plasma. The method, then:
Quality control (QC) samples at three concentrations (low, medium, and high concentration) were made up of appropriate mixed standard solutions with blank blood sample as calibration solutions to meet the required concentrations. All the solutions were kept at 4°C.
The stability of analytes in plasma samples was determined by analyzing QC samples of three concentration levels at different conditions: stored at autosampler for 12 h, at room temperature for 6 h, under three freeze-thaw cycles and stored at -70°C for 14 days. All stability studies were measured in six replicates.

Details of data set [3]: method as in PMID 23608243. The settings on record: rat dosed processed Radix polygoni multiflori; cited from earlier work.
Details of data set [4]: method as in PMID 26771134. To be noted: rat plasma, oral Radix glycyrrhizae or combination of Radix glycyrrhizae and Ramulus cinnamomi; cited from earlier work.
Details of data set [5]: method as in PMID 25943824. The settings on record: active ingredients of TMYX with high R values; cited from earlier work.
The mark [6] stands for this setting: oral TMYX extract 8.3 g/kg single dose, n=6.
Where [7] appears, read: oral TMYX extract 8.3 g/kg single dose.
Setting [8] is: high QC: spiked 2000 ng/mL glycyrrhizic acid, 1000 liquiritin, 200 emodin, 100 isoliquiritigenin.
[9] abbreviates: low QC: spiked 20 ng/mL glycyrrhizic acid, 10 liquiritin, 2 emodin, 1 isoliquiritigenin.
[10] abbreviates: medium QC: spiked 200 ng/mL glycyrrhizic acid, 100 liquiritin, 20 emodin, 10 isoliquiritigenin.
Where [11] appears, read: second peak, oral TMYX extract 8.3 g/kg single dose, n=6.

With `Cc1cc(O)c2c(c1)C(=O)c1cc(O)cc(O)c1C2=O` [emodin], in data set [1] (setting [6]), the AUC(0-inf) is 561 ± 192 ng·h/mL, the half-life was 4.21 ± 2.63 h, the AUC amounted to 476 ± 121 ng·h/mL and the k el was 0.000108 s⁻¹. Besides, in data set [1] (setting [6]), the “C max1” value was 88.0 ± 37.5 ng/mL. Besides, the “T max1” value in data set [1] (setting [7]) was 0.32 ± 0.14 h. Also, in data set [2] (setting [8]), the “Measured Concentration, auto-sampler for 12 h” value was found to be 200.50 ± 11.66 ng/mL; the “Measured Concentration, -70°C for 14 days” value was found to be 185.45 ± 0.98 ng/mL; the “Measured Concentration, room temperature for 6 h” value (“Measured Concentration … for 6 h” below) worked out at 207.49 ± 1.27 ng/mL; the “Measured Concentration, three freeze-thaw cycles” value came out at 197.74 ± 5.65 ng/mL. For the same molecule, in data set [2] (setting [9]), the “Measured Concentration, auto-sampler for 12 h” value was found to be 1.93 ± 0.02 ng/mL; the “Measured Concentration, -70°C for 14 days” value came to 1.86 ± 0.03 ng/mL; the “Measured Concentration … for 6 h” value came to 1.95 ± 0.05 ng/mL; the “Measured Concentration, three freeze-thaw cycles” value turned out to be 2.00 ± 0.02 ng/mL. For the same molecule, in data set [2] (setting [10]), the “Measured Concentration, auto-sampler for 12 h” value turned out to be 19.88 ± 1.81 ng/mL; the “Measured Concentration, -70°C for 14 days” value was 18.79 ± 0.18 ng/mL; the “Measured Concentration … for 6 h” value was 21.14 ± 0.99 ng/mL; the “Measured Concentration, three freeze-thaw cycles” value was 19.21 ± 0.33 ng/mL. Moreover, in data set [3], the “peaks in plasma profile” value is reported as “one peak”.

Consider `CC1(C)[C@@H](O[C@H]2O[C@H](C(=O)O)[C@@H](O)[C@H](O)[C@H]2O[C@@H]2O[C@H](C(=O)O)[C@@H](O)[C@H](O)[C@H]2O)CC[C@]2(C)[C@H]3C(=O)C=C4[C@@H]5C[C@@](C)(C(=O)O)CC[C@]5(C)CC[C@@]4(C)[C@]3(C)CC[C@@H]12` [glycyrrhizic acid], for which, in data set [1] (setting [6]), the AUC(0-inf) was 17300 ± 11000 ng·h/mL, the half-life is 18.2 ± 9.61 h, the area under the curve (AUC) was determined as 12700 ± 5060 ng·h/mL and the k el was 1.39e-05 s⁻¹. Further, the “C max1” value in data set [1] (setting [6]) stood at 351.7 ± 347.4 ng/mL. The “detection in vivo at 48 h” value in data set [1] (48 h after oral TMYX extract 8.3 g/kg) is recorded as “can still be detected in vivo at 48 h”. Further, in data set [1] (oral TMYX extract 8.3 g/kg), the “peaks in the mean plasma concentration-time profile” value was “double peaks”. The “T max1” value in data set [1] (setting [7]) was 2.13 h and 2.13 ± 1.44 h. Also, in data set [1] (setting [11]), the “C max2” value came out at 476.1 ± 146.0 ng/mL; the “T max2” value was 17.67 h and 17.67 ± 10.31 h. For the same molecule, in data set [2] (setting [8]), the “Measured Concentration, auto-sampler for 12 h” value turned out to be 1884.66 ± 9.26 ng/mL; the “Measured Concentration, -70°C for 14 days” value stood at 1834.54 ± 29.34 ng/mL; the “Measured Concentration … for 6 h” value was 2099.10 ± 8.92 ng/mL; the “Measured Concentration, three freeze-thaw cycles” value was 1869.00 ± 42.55 ng/mL. In data set [2] (setting [9]), the “Measured Concentration, auto-sampler for 12 h” value was 19.25 ± 0.34 ng/mL; the “Measured Concentration, -70°C for 14 days” value came out at 18.77 ± 0.09 ng/mL; the “Measured Concentration … for 6 h” value amounted to 20.49 ± 0.79 ng/mL; the “Measured Concentration, three freeze-thaw cycles” value came to 19.30 ± 0.20 ng/mL. In data set [2] (setting [10]), the “Measured Concentration, auto-sampler for 12 h” value is 200.96 ± 3.93 ng/mL; the “Measured Concentration, -70°C for 14 days” value is 200.33 ± 2.98 ng/mL; the “Measured Concentration … for 6 h” value turned out to be 203.22 ± 3.32 ng/mL; the “Measured Concentration, three freeze-thaw cycles” value came to 188.63 ± 3.57 ng/mL. For the same molecule, the “peaks in plasma concentration-time profile” value in data set [4] is listed as “One peak”. Further, the antiinflammatory effects entry in data set [5] is given as “exert antiinflammatory effects in a dose-dependent manner”.
